One compound from paper PMC8783508, “A novel D-amino acid peptide with therapeutic potential (ISAD1) inhibits aggregation of neurotoxic disease-relevant mutant Tau and prevents Tau toxicity in vitro” (Alzheimer's Research & Therapy, 2022) can be followed below.

Non-standard residues stand in square brackets, D forms with d. Residues, ends and D or L forms follow the SMILES beside them.

The target of one data set is T1, Tau^FL-P301L (Homo sapiens, UniProt P10636, P618L).
T1 construct: Tau^FL-P301L Full-length Tau mutant P301L
T1 sequence (P10636 1-441 isoform P10636-8 P301L): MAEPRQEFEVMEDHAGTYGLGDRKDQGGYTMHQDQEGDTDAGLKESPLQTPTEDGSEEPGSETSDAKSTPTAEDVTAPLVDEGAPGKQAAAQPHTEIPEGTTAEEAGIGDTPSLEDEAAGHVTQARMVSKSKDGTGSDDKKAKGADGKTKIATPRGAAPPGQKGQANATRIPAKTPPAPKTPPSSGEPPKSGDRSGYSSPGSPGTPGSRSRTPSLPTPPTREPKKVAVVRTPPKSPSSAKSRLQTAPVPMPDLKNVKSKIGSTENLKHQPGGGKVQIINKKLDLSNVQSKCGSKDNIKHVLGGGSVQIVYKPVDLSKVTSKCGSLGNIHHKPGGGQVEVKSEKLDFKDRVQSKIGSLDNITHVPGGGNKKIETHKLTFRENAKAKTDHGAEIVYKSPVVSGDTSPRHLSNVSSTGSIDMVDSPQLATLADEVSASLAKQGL
The experiment in a line: Fibrillization of Tau^FL-P301L monitored by ThS assay. The following applies: Tau:peptide = 1:1; 1:5; 1:10. Type of data set: biochemical. As for the experimental part:
For Tau fibrillization inhibition assays, 10 μM Tau mutant protein (Tau^RDΔK, Tau^FLΔK, Tau^FL-A152T, Tau^FL-P301L) was incubated in BES buffer (N,N-bis(2-hydroxyethyl)-2-aminoethanesulfonic acid, pH 7) in the presence of 2.5 μM heparin at 37 °C for 24 h with and without novel D-peptides (ISAD1 and ISAD1rev) at different concentrations (1 nM to 200 μM). Final concentration of 20 μM ThS was used for monitoring fibrillization. The assay was performed with 40-μl sample volume per well in a 384-well microtiter plate (Thermo LabSystems, Dreieich, Germany). The fibrillization of Tau was monitored by ThS and the relative fluorescence intensity of ThS was read out at 440 excitation/521 emission nm in a Tecan micro titer plate reader (Tecan, Männedorf, Switzerland).

Data set [1] deals with N2a cells expressing Tau^RDΔK. The experiment in a line: Uptake of FAM-labeled D-peptides by confocal microscopy. It counts as cell-based. Conditions: 25 μM FAM-labeled peptide, 24 h, fixed cells. On the procedure:
In order to become potentially suitable for therapeutic development, the D-peptides should be internalized by neurons. To test this, 25 μM FAM-labeled ISAD1 or its inversed form was added to cells that express pro-aggregant mutant Tau^RDΔK for 24 h followed by cell fixation.
Fig. 7 Uptake of fluorescence-labeled D-peptides analyzed by confocal microscopy. 25 μM FAM-labeled peptides (ISAD1 and ISArev) were incubated with N2a cells expressing Tau^RDΔK for 24 h. The uptake of D-peptides was analyzed by confocal microscopy. As shown in the representative images, the peptides are mainly localized in the cytoplasm (A1, B1 Draq5 shown as red; A2 ISAD1-FAM, B2 ISAD1rev-FAM; A3, B3 merged images)

In another data set the test system is N2a-Tau^RDΔK cells. The experiment in a line: MTT cytotoxicity of the peptides alone. The following applies: 25, 50, 100, 250 μM peptide, 24 h, n = 3. Type of data set: cell-based. As for the experimental part:
Cell viability was analyzed in accordance with the manufacturer’s protocol (Roche Diagnostics, Mannheim, Germany; cell proliferation kit II (MTT)). This assay is based on the cleavage of the yellow tetrazolium salt MTT into purple formazan dye by metabolic active cells. The color changes only in viable cells and can be directly quantified using a scanning multiwell spectrophotometer. In all experiments, the cells were grown as described previously. The cells (25,000 cells/well or 80% confluence) were plated on poly D-lysine-coated 96-well plates (Greiner Bio-One GmbH, Frickenhausen, Germany) for stronger attachment from overnight to 24 h at 37 °C. Fibrillized Tau^RDΔK was generated by incubating 200 μM Tau^RDΔK in BES buffer at 37 °C for 24 h in the presence of 2 mM D-peptides (Tau^RDΔK:peptide = 1:10). Successful fibrillization was verified using ThS (5 μM Tau^RDΔK, 10 μM ThS) measurement. The aggregated Tau^RDΔK (10 μM final concentration), Tau^RDΔK (10 μM) + peptide (100 μM) samples (ISAD1 and ISAD1rev), buffer only (negative control, set to 100% cell viability), and TritonX-100 (2%, cytotoxic agent, positive control) were incubated on N2a-Tau^RDΔK cells (100 μl solution) for another 24 h. The cell viability was measured in accordance with the manufacturer’s protocol.
A MTT-based cytotoxicity assay in the presence of ISAD1 and ISAD1rev peptides. […]

In the case of `CC(C)C[C@@H](NC(=O)[C@@H](CO)NC(=O)[C@@H](CC(C)C)NC(=O)[C@H](NC(=O)[C@@H](CC(=O)O)NC(=O)[C@@H](C)NC(=O)[C@@H](C)NC(=O)[C@H](N)CO)[C@H](C)O)C(=O)N[C@H](CCCCN)C(=O)N[C@H](Cc1ccccc1)C(=O)N[C@@H](C(=O)N[C@H](CO)C(=O)O)C(C)C` [ISAD1rev] (H-[dS][dA][dA][dD][dT][dL][dS][dL][dK][dF][dV][dS]-OH; N-terminus and C-terminus assumed), at Tau^FL-P301L, the “Inhibition of Tau^FL-P301L fibrillization, in words” value is recorded as “weak inhibitory effects”. Also, in data set [1], the Intracellular localisation entry is on record as “accumulated in the cytosol but were excluded from the nucleus” and the Uptake by cells result was “almost all cells took up the D-peptides”. For the same compound, the “Cytotoxicity, MTT” value with N2a-Tau^RDΔK cells is recorded as “do not induce toxic effects”.
